We go through four compounds from publication PMC7168207, “Dibasic Derivatives of Phenylcarbamic Acid as Prospective Antibacterial Agents Interacting with Cytoplasmic Membrane” (Antibiotics, 2020).

Experiment [1] deals with human monocytic leukemia THP-1 cells. Briefly: in vitro antiproliferative assay (WST-1). As to conditions: Homo sapiens, THP-1, 24 h, read-out: Tox IC50. It is filed as cell-based. In short, it runs like this: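 THP-1 cells in serum-free RPMI 1640 treated with compounds (DMSO ≤0.1%) for 24 h at 37 °C, 5% CO2, triplicate; viability by WST-1 tetrazolium read-out. IC50 from dose-response curve.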
A general note: Tetrazolium dyes change colour on reduction, which living cells bring about.

Experiment [2] concerns VRE 725B. Briefly: synergy with antibiotics (FIC index, checkerboard). The format is cell-based, Enterococcus faecalis. As to conditions: combination with VAN, data not shown. The source says:
Representatives from various classes were chosen in order to study the potential difference in synergistic activity according to the diverse mechanisms of action and resistance of these drugs. The method of minimal fractional inhibitory concentration (FIC) index (FICI) in a microtitration plate was used. FICI ≤ 0.5 means synergy; 0.5 < FICI < 1 means additivity; 1 ≤ FICI < 4 means indifference; and FICI ≥ 4 means antagonism.
The used VRE strains were isolated from American crows by Oravcova et al., and their genetic profiles were characterized. All the VRE strains were carrying genes vanA, tetM, and ermB. Strains VRE 368 and VRE 725B carried gene aac, which provided acquired aminoglycoside resistance.
For synergy effect study, a method of fractional inhibitory concentration was used. […] Raw H was used for the evaluation of MIC(A); column 12 was used for evaluation of MIC(B). The plate was inoculated by the bacterial suspension to reach final concentration of 5 × 10^5 CFU/mL in the wells. The fractional inhibitory concentration (FIC) index was calculated using the concentrations in the first nonturbid (clear) well found in each row and column along the turbidity/nonturbidity interface. To interpret the combined effect, the lowest FICI was used. A ΣFIC ≤ 0.5 means synergy; 0.5 < ΣFIC < 1 means additivity; 1 ≤ ΣFIC < 4 means indifference; and ΣFIC ≥ 4 means antagonism. The tests were made in duplicate, and the results were averaged.

The test system of another experiment is E. faecalis ATCC 29212. The experiment is described as follows: time-kill study. It is filed as cell-based, Enterococcus faecalis. As to conditions: EF. The source says: (§1) Time-kill studies are used to evaluate the dynamics of antibacterial activity. As mentioned above, a pre-test to determine minimum bactericidal concentration (MBC) by sub-cultivation of aliquots on agar was made (see Section 3.4). […] Time-kill studies were made with methicillin-susceptible S. aureus ATCC 29213 and methicillin-resistant MRSA 63718, vancomycin-susceptible E. faecalis ATCC 29212, and all three VRE isolates. Vancomycin was used as a control (Table 6).
(§2) The method of time-kill curves was used to study the bactericidal effect of selected compounds. […] The experiment was performed with S. aureus ATCC 29213, MRSA 63718, E. faecalis ATCC 29212, and all VRE isolates. […] The tubes were inoculated by bacterial inoculum in the exponential phase of growth to get a final concentration of 7.5 × 10^6 CFU/mL. The tubes were incubated statically at 37 °C. Immediately after inoculation and after 4, 6, 8, and 24 h, 100 µL of the sample was serially diluted (1:10) in PBS. Then, 2 × 20 µL from each dilution were put onto a Mueller–Hinton agar plate and cultivated at 37 °C for 24 h. After incubation, CFUs of dilutions containing 5–50 colonies were counted. Results were expressed as a decrease of log10(CFU) in each time compared to the starting inoculum. Bactericidal effect is defined as a −3log decrease of CFU/mL compared to the growth control in time 0. The test was made in duplicate on two separate occasions, and the results were averaged. The growth curves with error bars are shown in Figures S1 and S2 in Supplementary Materials.

The subject of another experiment is VRE 368. Briefly: time-kill study. The format is cell-based, Enterococcus faecalis. As to conditions: VRE2.
Source text: as §1, §2

Experiment [3] has as its system VRE 725B. Briefly: time-kill study. It is filed as cell-based, Enterococcus faecalis. As to conditions: VRE3.
Source text: as §1, §2

Read-outs that look alike come from different tables or passages of the source. Marks after values point to notes of the source that are not given here.

As for `CCCCCOc1cccc(NC(=O)OC(CN(CCC)CCC)CN2CCCC2)c1.Cl.Cl` (stereo not drawn) [1f, 1-[3-(dipropylammonio)-2-({[3-(pentyloxy)phenyl]carbamoyl}-oxy)propyl]pyrrolidinium dichloride], the IC50 in experiment [1] (THP-1 cells, WST-1, 24 h) came to 4.19 ± 0.54 µM.

For `CCCCCCOc1cccc(NC(=O)OC(CN(CCC)CCC)CN2CCCC2)c1.Cl.Cl` (stereo not drawn) [1g, 1-[3-(dipropylammonio)-2-({[3-(hexyloxy)phenyl]carbamoyl}oxy)propyl]pyrrolidinium dichloride], in experiment [1] (THP-1 cells, WST-1, 24 h), the IC50 turned out to be 3.5 ± 0.31 µM. Further, the “effect of the combination with VAN” value with VRE 725B [2] was “indifferent effect”. Besides, the “Log10 Difference in CFU/mL from Inoculum” value with E. faecalis ATCC 29212 (1 × MIC, 4 h) is −1.63 log10 CFU/mL; in the experiment on E. faecalis ATCC 29212 (1 × MIC, 6 h), −1.01 log10 CFU/mL; in the experiment with E. faecalis ATCC 29212 (1 × MIC, 8 h), −0.61 log10 CFU/mL; in the experiment on E. faecalis ATCC 29212 (1 × MIC, 24 h) it was 0.27 log10 CFU/mL; in the experiment with E. faecalis ATCC 29212 (2 × MIC, 4 h), −3.37 * log10 CFU/mL; with E. faecalis ATCC 29212 (2 × MIC, 6 h), −3.43 * log10 CFU/mL. The “Log10 Difference in CFU/mL from Inoculum” value with E. faecalis ATCC 29212 (2 × MIC, 8 h) is reported as −2.68 log10 CFU/mL; in the experiment on E. faecalis ATCC 29212 (2 × MIC, 24 h) it was 1.04 log10 CFU/mL; in the experiment with E. faecalis ATCC 29212 (4 × MIC, 4 h) it was −5.62 * log10 CFU/mL; in the experiment with E. faecalis ATCC 29212 (4 × MIC, 6 h) it was −5.14 * log10 CFU/mL; in the experiment on E. faecalis ATCC 29212 (4 × MIC, 8 h) it was −5.92 * log10 CFU/mL; with E. faecalis ATCC 29212 (4 × MIC, 24 h) it was −0.31 log10 CFU/mL. Besides, the “Log10 Difference in CFU/mL from Inoculum” value is on record as −2.00 log10 CFU/mL with VRE 368 (1 × MIC, 4 h); 0.29 log10 CFU/mL with VRE 368 (1 × MIC, 6 h); 0.25 log10 CFU/mL with VRE 368 (1 × MIC, 8 h); −0.16 log10 CFU/mL in the experiment with VRE 368 (1 × MIC, 24 h); −2.34 log10 CFU/mL in the experiment on VRE 368 (2 × MIC, 4 h); −1.97 log10 CFU/mL in the experiment on VRE 368 (2 × MIC, 6 h). For the same compound, the “Log10 Difference in CFU/mL from Inoculum” value with VRE 368 (2 × MIC, 8 h) is on record as −1.01 log10 CFU/mL; in the experiment on VRE 368 (2 × MIC, 24 h), 0.32 log10 CFU/mL; with VRE 368 (4 × MIC, 4 h), −2.72 * log10 CFU/mL; in the experiment on VRE 368 (4 × MIC, 6 h), −2.71 * log10 CFU/mL; in the experiment with VRE 368 (4 × MIC, 8 h), −2.45 log10 CFU/mL; in the experiment on VRE 368 (4 × MIC, 24 h), 0.97 log10 CFU/mL. Moreover, the “Log10 Difference in CFU/mL from Inoculum” value in the experiment on VRE 725B [3] (1 × MIC, 4 h) is on record as −0.09 log10 CFU/mL; with VRE 725B [3] (1 × MIC, 6 h), −0.29 log10 CFU/mL; in the experiment on VRE 725B [3] (1 × MIC, 8 h) it was 0.19 log10 CFU/mL; with VRE 725B [3] (1 × MIC, 24 h), 2.41 log10 CFU/mL; in the experiment on VRE 725B [3] (2 × MIC, 4 h), −0.75 log10 CFU/mL; with VRE 725B [3] (2 × MIC, 6 h), −0.74 log10 CFU/mL. In addition, the “Log10 Difference in CFU/mL from Inoculum” value with VRE 725B [3] (2 × MIC, 8 h) was 0.56 log10 CFU/mL; with VRE 725B [3] (2 × MIC, 24 h), 0.43 log10 CFU/mL; with VRE 725B [3] (4 × MIC, 4 h) it was −1.85 log10 CFU/mL; with VRE 725B [3] (4 × MIC, 6 h) it was −1.85 log10 CFU/mL; in the experiment with VRE 725B [3] (4 × MIC, 8 h), −2.15 log10 CFU/mL; in the experiment on VRE 725B [3] (4 × MIC, 24 h), −2.27 log10 CFU/mL.

As to `CCCCCCCOc1cccc(NC(=O)OC(CN(CCC)CCC)CN2CCCC2)c1.Cl.Cl` (stereo not drawn) [1h, 1-[3-(Dipropylammonio)-2-({[3-(heptyloxy)phenyl]carbamoyl}oxy)propyl]pyrrolidinium dichloride], in experiment [1] (THP-1 cells, WST-1, 24 h), the IC50 stood at 3.67 ± 0.01 µM. Also, in the experiment with VRE 725B [2], the “effect of the combination with VAN” value is “indifferent effect”. For the same compound, the “Log10 Difference in CFU/mL from Inoculum” value was −0.64 log10 CFU/mL in the experiment with E. faecalis ATCC 29212 (1 × MIC, 4 h); 0.16 log10 CFU/mL in the experiment on E. faecalis ATCC 29212 (1 × MIC, 6 h); 0.24 log10 CFU/mL in the experiment with E. faecalis ATCC 29212 (1 × MIC, 8 h); 0.34 log10 CFU/mL in the experiment on E. faecalis ATCC 29212 (1 × MIC, 24 h); −1.87 log10 CFU/mL in the experiment on E. faecalis ATCC 29212 (2 × MIC, 4 h); −1.36 log10 CFU/mL with E. faecalis ATCC 29212 (2 × MIC, 6 h). Besides, the “Log10 Difference in CFU/mL from Inoculum” value with E. faecalis ATCC 29212 (2 × MIC, 8 h) is −0.86 log10 CFU/mL; with E. faecalis ATCC 29212 (2 × MIC, 24 h) it was 0.42 log10 CFU/mL; with E. faecalis ATCC 29212 (4 × MIC, 4 h), −2.57 * log10 CFU/mL; in the experiment on E. faecalis ATCC 29212 (4 × MIC, 6 h), −2.23 * log10 CFU/mL; in the experiment on E. faecalis ATCC 29212 (4 × MIC, 8 h) it was −1.62 log10 CFU/mL; with E. faecalis ATCC 29212 (4 × MIC, 24 h), 0.49 log10 CFU/mL. Besides, the “Log10 Difference in CFU/mL from Inoculum” value is given as 0.46 log10 CFU/mL in the experiment with VRE 368 (1 × MIC, 4 h); 0.71 log10 CFU/mL in the experiment on VRE 368 (1 × MIC, 6 h); 1.25 log10 CFU/mL in the experiment with VRE 368 (1 × MIC, 8 h); 1.13 log10 CFU/mL in the experiment on VRE 368 (1 × MIC, 24 h); 0.28 log10 CFU/mL with VRE 368 (2 × MIC, 4 h); 0.54 log10 CFU/mL in the experiment with VRE 368 (2 × MIC, 6 h). Besides, the “Log10 Difference in CFU/mL from Inoculum” value is on record as −0.37 log10 CFU/mL with VRE 368 (2 × MIC, 8 h); 0.66 log10 CFU/mL in the experiment on VRE 368 (2 × MIC, 24 h); −0.32 log10 CFU/mL in the experiment with VRE 368 (4 × MIC, 4 h); 0.05 log10 CFU/mL with VRE 368 (4 × MIC, 6 h); 0.22 log10 CFU/mL with VRE 368 (4 × MIC, 8 h); 0.37 log10 CFU/mL in the experiment with VRE 368 (4 × MIC, 24 h). Also, the “Log10 Difference in CFU/mL from Inoculum” value with VRE 725B [3] (1 × MIC, 4 h) is −0.70 log10 CFU/mL; in the experiment on VRE 725B [3] (1 × MIC, 6 h), 0.08 log10 CFU/mL; with VRE 725B [3] (1 × MIC, 8 h) it was −0.05 log10 CFU/mL; in the experiment on VRE 725B [3] (1 × MIC, 24 h) it was 0.92 log10 CFU/mL; in the experiment with VRE 725B [3] (2 × MIC, 4 h) it was −1.81 log10 CFU/mL; in the experiment on VRE 725B [3] (2 × MIC, 6 h), −1.31 log10 CFU/mL. Further, the “Log10 Difference in CFU/mL from Inoculum” value with VRE 725B [3] (2 × MIC, 8 h) is recorded as −0.81 log10 CFU/mL; in the experiment with VRE 725B [3] (2 × MIC, 24 h) it was 0.95 log10 CFU/mL; in the experiment on VRE 725B [3] (4 × MIC, 4 h) it was −1.75 * log10 CFU/mL; in the experiment on VRE 725B [3] (4 × MIC, 6 h), −0.76 log10 CFU/mL; in the experiment on VRE 725B [3] (4 × MIC, 8 h), −0.76 log10 CFU/mL; in the experiment on VRE 725B [3] (4 × MIC, 24 h) it was 1.08 log10 CFU/mL.

Consider `CN[C@H](CC(C)C)C(=O)N[C@H]1C(=O)N[C@@H](CC(N)=O)C(=O)N[C@H]2C(=O)N[C@H]3C(=O)N[C@H](C(=O)N[C@H](C(=O)O)c4cc(O)cc(O)c4-c4cc3ccc4O)[C@H](O)c3ccc(c(Cl)c3)Oc3cc2cc(c3O[C@@H]2O[C@H](CO)[C@@H](O)[C@H](O)[C@H]2O[C@H]2C[C@](C)(N)[C@H](O)[C@H](C)O2)Oc2ccc(cc2Cl)[C@H]1O` [VAN, vancomycin, reference compound], for which the IC50 in experiment [1] was above 30 µM.

By IC50 is commonly meant the point on the concentration scale where inhibition reaches its midpoint.
